Results on 17 molecules are retold here after patent publication US20100069341A1, “TETRAHYDRO-PYRANOPYRAZOLE CANNABINOID MODULATORS” (priority 2005, published 2010).

Like-named read-outs stand apart in the source and are kept apart here.

For assay [1], the target named is T1, Cannabinoid CB1 Receptor (Homo sapiens, UniProt P21554).
T1 construct: expressed in transfected cells; semi-purified membrane pellet
Description: Binding assay, cannabinoid CB1 receptor ([3H]-CP-55,940 displacement, SK-N-MC cell membranes). To be noted: for inhibition at 0.2 µM: read-out: Cannabinoid CB1 Receptor Binding, percent inhibition. As to the method:
(§1) Binding Assay for CB1 or CB2 Agonists or Inverse Agonists
(§2) The human CB1 and CB2 receptors were stably expressed in SK-N-MC cells transfected with pcDNA3 CB-1 (human) or pcDNA3 CB-2 (human). The cells were grown in T-180 cell culture flasks under standard cell culture conditions at 37° C. in a 5% CO2 atmosphere. The cells were harvested by trysinization and homogenized in a homogenization buffer (10 mM Tris, 0.2 mM MgCl2, 5 mM KCl, with protease inhibitors aprotinin, leupeptin, pepstatin A and bacitracin) and centrifuged (2000 g). The supernatant was then centrifuged in 2M sucrose (31,300 g) to produce a semi-purified membrane pellet. The pellet was resuspended in homogenization and store at −80° C.
On the day of the assay, the pellet was thawed on ice and diluted in assay buffer (50 mM Tris-HCl, 5 mM MgCl2, 2.5 mM EDTA, 0.5 mg/mL fatty acid free bovine serum albumin, pH 7.5). […] The plate was covered and incubated for 90 minutes at 30° C. The contents were then aspirated onto a Packard Unifilter GF/C filter bottom plate prewet with 0.5% polyethyleneimine. The wells of the polypropylene plate were rinsed and aspirated seven times with a 0.9% saline-0.5% Tween 20 solution. The Unifilter plate was dried, a scintillation cocktail was added to each well and the counts representing binding were quantitated in a TopCount scintillation counter.
For compounds tested, an IC50 binding value was obtained from percent inhibition studies in which various test concentrations were used. The binding value (in μM) was calculated by linear regression.

The target in assay [2] is T2, Cannabinoid CB2 Receptor (Homo sapiens, UniProt P34972).
T2 construct: expressed in transfected cells; semi-purified membrane pellet
T2 sequence (P34972 whole entry): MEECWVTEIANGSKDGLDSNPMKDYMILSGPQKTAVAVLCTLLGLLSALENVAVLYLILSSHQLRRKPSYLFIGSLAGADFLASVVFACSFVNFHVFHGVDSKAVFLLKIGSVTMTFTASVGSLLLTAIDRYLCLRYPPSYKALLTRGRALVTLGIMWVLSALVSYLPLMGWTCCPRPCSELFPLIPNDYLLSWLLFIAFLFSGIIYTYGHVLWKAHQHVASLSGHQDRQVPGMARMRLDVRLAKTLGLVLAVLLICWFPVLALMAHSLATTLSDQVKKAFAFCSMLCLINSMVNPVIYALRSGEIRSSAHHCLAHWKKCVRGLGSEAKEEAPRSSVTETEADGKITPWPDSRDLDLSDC
Kind of assay: Binding assay, cannabinoid CB2 receptor ([3H]-CP-55,940 displacement, SK-N-MC cell membranes). The note with it: test concentration of 0.2 μM, human CB2 in SK-N-MC membranes; for inhibition at 0.2 µM: read-out: Cannabinoid CB2 Receptor Binding, percent inhibition. As to the method:
as §1, §2
On the day of the assay, the pellet was thawed on ice and diluted in assay buffer (50 mM Tris-HCl, 5 mM MgCl2, 2.5 mM EDTA, 0.5 mg/mL fatty acid free bovine serum albumin, pH 7.5). The diluted membrane was added with buffer, test compound or standard and the radioligand [H]^3+-CP-55,940 (0.2 nM) to the wells of a 96-well polypropylene plate. Non-specific binding was measured in wells containing 10 uM WIN 55,212. The plate was covered and incubated for 90 minutes at 30° C. The contents were then aspirated onto a Packard Unifilter GF/C filter bottom plate prewet with 0.5% polyethyleneimine. The wells of the polypropylene plate were rinsed and aspirated seven times with a 0.9% saline-0.5% Tween 20 solution. The Unifilter plate was dried, a scintillation cocktail was added to each well and the counts representing binding were quantitated in a TopCount scintillation counter.
For compounds tested, an IC50 binding value was obtained from percent inhibition studies in which various test concentrations were used. The binding value (in μM) was calculated by linear regression. For compounds without an IC50 binding value, the percent inhibition (in %) was obtained at a test concentration of 0.2 μM.

Setting [3] is: test concentration of 0.2 μM, human CB1 in SK-N-MC membranes.

T1 sequence (P21554 whole entry): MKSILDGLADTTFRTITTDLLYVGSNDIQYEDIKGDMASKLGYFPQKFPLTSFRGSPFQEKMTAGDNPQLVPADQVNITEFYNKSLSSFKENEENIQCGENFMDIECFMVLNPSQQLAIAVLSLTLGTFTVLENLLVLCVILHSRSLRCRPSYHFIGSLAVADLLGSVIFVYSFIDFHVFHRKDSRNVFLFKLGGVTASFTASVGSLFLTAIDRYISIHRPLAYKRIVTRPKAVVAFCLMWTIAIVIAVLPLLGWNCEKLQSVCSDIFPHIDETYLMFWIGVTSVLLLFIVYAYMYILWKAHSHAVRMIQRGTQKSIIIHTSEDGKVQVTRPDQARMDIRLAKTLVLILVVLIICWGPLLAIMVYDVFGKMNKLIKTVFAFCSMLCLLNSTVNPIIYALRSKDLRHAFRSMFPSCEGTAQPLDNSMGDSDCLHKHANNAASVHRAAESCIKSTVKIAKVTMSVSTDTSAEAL

As a reminder, the IC50 is the concentration needed to halve the response being measured. A lower IC50 goes with greater potency. By inhibition is commonly meant the share of the control response that was lost under treatment. In the case of `C[C@@H](NC(=O)c1nn(-c2ccc(Cl)cc2)c2c1COC/C2=C\c1ccc(F)cc1)C1CCCCC1` [Cpd 13, (7Z)-1-(4-chloro-phenyl)-7-(4-fluoro-benzylidene)-1,4,6,7-tetrahydro-pyrano[4,3-c]pyrazole-3-carboxylic acid [(1R)-1-cyclohexyl-ethyl]-amide], the IC50 in assay [1] was determined as 20 nM. In addition, the inhibition at 0.2 µM in assay [1] came out at 84%; in assay [2], 25%.

Consider `CC(NC(=O)c1nn(-c2ccc(Cl)cc2Cl)c2c1COC/C2=C\c1ccc(Cl)s1)c1ccccn1` (stereo not shown) [Cpd 60, (7Z)-7-(5-chloro-thiophen-2-ylmethylene)-1-(2,4-dichloro-phenyl)-1,4,6,7-tetrahydro-pyrano[4,3-c]pyrazole-3-carboxylic acid (1-pyridin-2-yl-ethyl)-amide], for which the figures for the inhibition at 0.2 µM in assay [1] (setting [3]) and in assay [2] were 58% and 7%, respectively.

Consider `C[C@@H](NC(=O)c1nn(-c2ccc(Cl)cc2Cl)c2c1COC/C2=C\c1ccc(Cl)o1)c1ccccc1` [Cpd 69, (7Z)-7-(5-chloro-furan-2-ylmethylene)-1-(2,4-dichloro-phenyl)-1,4,6,7-tetrahydro-pyrano[4,3-c]pyrazole-3-carboxylic acid [(R)-1-phenyl-ethyl]-amide], for which, in assay [1], the IC50 was found to be 50 nM. Also, the inhibition at 0.2 µM is 73% in assay [1] (setting [3]) and 15% in assay [2].

Take `O=C(NN1CCCCCC1)c1nn(-c2ccc(Cl)cc2Cl)c2c1COC/C2=C\c1cccs1` [Cpd 36, (7Z)-1-(2,4-dichloro-phenyl)-7-thiophen-2-ylmethylene-1,4,6,7-tetrahydro-pyrano[4,3-c]pyrazole-3-carboxylic acid azepan-1-ylamide]: in assay [1], the IC50 worked out at 20 nM. Also, the inhibition at 0.2 µM in assay [1] (setting [3]) came to 84%; in assay [2], 16%.

As for `COC[C@@H]1CCCN1NC(=O)c1nn(-c2ccc(Cl)cc2Cl)c2c1COC/C2=C\c1ccc(Cl)s1` [Cpd 73, (7Z)-7-(5-chloro-thiophen-2-ylmethylene)-1-(2,4-dichloro-phenyl)-1,4,6,7-tetrahydro-pyrano[4,3-c]pyrazole-3-carboxylic acid [(2S)-2-methoxymethyl-pyrrolidin-1-yl]-amide], the figures for the inhibition at 0.2 µM in assay [1] (setting [3]) and in assay [2] were 57% and 11%, respectively.

For “(7Z)-7-(5-chloro-thiophen-2-ylmethylene)-1-(2,4-dichloro-phenyl)-1,4,6,7-tetrahydro-pyrano[4,3-c]pyrazole-3-carboxylic acid [(2S)-2-benzyl-pentyl]-amide [Cpd 59]”, the “Cannabinoid CB1 Receptor Binding, percent inhibition” value in assay [1] (setting [3]) was determined as 38%. The “Cannabinoid CB2 Receptor Binding, percent inhibition” value in assay [2] is on record as 17%.

On to `O=C(NNC1CCCCC1)c1nn(-c2ccc(Cl)cc2Cl)c2c1COC/C2=C\c1ccc(F)cc1` [Cpd 29, (7Z)-1-(2,4-dichloro-phenyl)-7-(4-fluoro-benzylidene)-1,4,6,7-tetrahydro-pyrano[4,3-c]pyrazole-3-carboxylic acid N′-cyclohexyl-hydrazide], for which the inhibition at 0.2 µM in assay [1] (setting [3]) is 52%; in assay [2], 0%.

With `O=C(NN1CCCCCC1)c1nn(-c2ccc(Cl)cc2Cl)c2c1COC/C2=C\c1ccsc1` [Cpd 44, (7Z)-1-(2,4-dichloro-phenyl)-7-thiophen-3-ylmethylene-1,4,6,7-tetrahydro-pyrano[4,3-c]pyrazole-3-carboxylic acid azepan-1-ylamide], in assay [1], the IC50 was determined as 20 nM. For the same molecule, the inhibition at 0.2 µM is 86% in assay [1] (setting [3]) and 16% in assay [2].

In assay [1], `C[C@@H](NC(=O)c1nn(-c2ccc(Cl)cc2Cl)c2c1COC/C2=C\c1cccs1)c1ccccc1` [Cpd 32, (7Z)-1-(2,4-dichloro-phenyl)-7-thiophen-2-ylmethylene-1,4,6,7-tetrahydro-pyrano[4,3-c]pyrazole-3-carboxylic acid [(R)-1-phenyl-ethyl]-amide] came in with an IC50 of 20 nM. For the same molecule, the inhibition at 0.2 µM in assay [1] (setting [3]) was 76%; in assay [2] it was 11%.

Take `O=C(NN1CCCCC1)c1nn(-c2ccc(Cl)cc2)c2c1COC/C2=C\c1ccc(F)cc1` [Cpd 11, (7Z)-1-(4-chloro-phenyl)-7-(4-fluoro-benzylidene)-1,4,6,7-tetrahydro-pyrano[4,3-c]pyrazole-3-carboxylic acid piperidin-1-ylamide]: the inhibition at 0.2 µM in assay [1] (setting [3]) came to 55%; in assay [2] it was 6%.

For the molecule `CN1CCN(NC(=O)c2nn(-c3ccc(Cl)cc3Cl)c3c2COCC3Cc2ccc(F)cc2)CC1` (stereo not shown) [Cpd 26, 1-(2,4-dichloro-phenyl)-7-(4-fluoro-benzyl)-1,4,6,7-tetrahydro-pyrano[4,3-c]pyrazole-3-carboxylic acid (4-methyl-piperazin-1-yl)-amide], the inhibition at 0.2 µM came to 8% in assay [1] (setting [3]) and 13% in assay [2].

Turning to `CC(NC(=O)c1nn(-c2ccc(Cl)cc2Cl)c2c1COC/C2=C\c1ccc(Cl)o1)c1ccccn1` (stereo not shown) [Cpd 67, (7Z)-7-(5-chloro-furan-2-ylmethylene)-1-(2,4-dichloro-phenyl)-1,4,6,7-tetrahydro-pyrano[4,3-c]pyrazole-3-carboxylic acid (1-pyridin-2-yl-ethyl)-amide], the results for the inhibition at 0.2 µM in assay [1] (setting [3]) and in assay [2] were 40% and 7%, respectively.

Regarding `O=C(N[C@H](CO)c1ccccc1)c1nn(-c2ccc(Cl)cc2Cl)c2c1COC/C2=C\c1ccc(Cl)s1` [Cpd 58, (7Z)-7-(5-chloro-thiophen-2-ylmethylene)-1-(2,4-dichloro-phenyl)-1,4,6,7-tetrahydro-pyrano[4,3-c]pyrazole-3-carboxylic acid [(S)-2-hydroxy-1-phenyl-ethyl]-amide], the inhibition at 0.2 µM in assay [1] (setting [3]) amounted to 59%; in assay [2] it was 0%.

For the molecule `O=C(NN1CC2CCCC2C1)c1nn(-c2ccc(Cl)cc2Cl)c2c1COC/C2=C\c1ccsc1` (stereo not shown) [Cpd 45, (7Z)-1-(2,4-dichloro-phenyl)-7-thiophen-3-ylmethylene-1,4,6,7-tetrahydro-pyrano[4,3-c]pyrazole-3-carboxylic acid (hexahydro-cyclopenta[c]pyrrol-2-yl)-amide], the IC50 in assay [1] came out at 20 nM. The inhibition at 0.2 µM was 84% in assay [1] (setting [3]) and 19% in assay [2].

For the molecule `O=C(NN1CCCCC1)c1nn(-c2ccc(Cl)cc2Cl)c2c1COC/C2=C\c1ccc(Cl)o1` [Cpd 64, (7Z)-7-(5-chloro-furan-2-ylmethylene)-1-(2,4-dichloro-phenyl)-1,4,6,7-tetrahydro-pyrano[4,3-c]pyrazole-3-carboxylic acid piperidin-1-ylamide], the inhibition at 0.2 µM came out at 62% in assay [1] (setting [3]) and 12% in assay [2].

As to `O=C(c1nn(-c2ccc(Cl)cc2Cl)c2c1COC/C2=C\c1ccc(F)cc1)N1CCCC1` [Cpd 10, (7Z)-[1-(2,4-dichloro-phenyl)-7-(4-fluoro-benzylidene)-1,4,6,7-tetrahydro-pyrano[4,3-c]pyrazol-3-yl]-pyrrolidin-1-yl-methanone], the results for the inhibition at 0.2 µM in assay [1] (setting [3]) and in assay [2] were 33% and 14%, respectively.

In the case of `O=C(N[C@H]1c2ccccc2C[C@H]1O)c1nn(-c2ccc(Cl)cc2Cl)c2c1COC/C2=C\c1ccc(F)cc1` [Cpd 4, (7Z)-1-(2,4-dichloro-phenyl)-7-(4-fluoro-benzylidene)-1,4,6,7-tetrahydro-pyrano[4,3-c]pyrazole-3-carboxylic acid [(1S,2R)-2-hydroxy-indan-1-yl]-amide], the inhibition at 0.2 µM came to 64% in assay [1] (setting [3]) and 19% in assay [2].
